Laboratory results as given in patent publication US20240287134A1, “PEPTIDES FOR USE AS SENOTHERAPEUTIC AGENTS” (FUNDACIÓN PROFESOR NOVOA SANTOS, priority 2019, published 2024).
Where a SMILES comes first, the peptide text is derived from it. Where no end group is shown, it is not given here. The star is where a group is joined. X1 = CN(C)c1ccc2c(c1)Oc1cc(N(C)C)ccc1C21OC(=O)c2ccc(C(=O)*)cc21; TMR = fluorophore attached at the N-terminus

Legend:
Format in all cases: cell-based, human
Cx43 in OA chondrocytes [1] = test: Immunofluorescence for the detection of Cx43; conditions: 200 μM, against untreated (UT) cells
From the text: (§1) FIG. 4. Decrease in Cx43 levels in chondrocytes from patients with OA treated with peptides YSA1, YTP1 and TUB1. […] The decrease in the levels and activity of Cx43 activates the re-differentiation of the chondrocyte and decreases the accumulation of senescent cells, restoring the adult chondrocyte phenotype and tissue regeneration capacity. […] The results obtained were confirmed by western-blot using α-tubulin as loading control. […] (d) Chondrocytes isolated from donors with osteoarthritis were treated for 16 hours with the YTP1 peptide (150 μM) and the Cx43 levels were analysed by western blot, using α-tubulin as loading control. […] (e) Chondrocytes isolated from donors with OA were treated for 16 hours with the 8Arg-YSA1 peptide (5 μM) and the Cx43 levels were analysed by western blot, using α-tubulin as loading control. […] (g) Chondrocytes isolated from donors with OA were treated for 16 hours with the TUB1 peptide (5 μM) and the Cx43 levels were analysed by western blot, using the intensity of the Ponceau stain as loading control.
Primary cultures of chondrocytes at a confluence of 70-80% were treated with mimetic peptides of Cx43, and fixed with 2-4% paraformaldehyde (PFA, Sigma-Aldrich) in phosphate buffered saline (PBS, MP Biomedicals) for 10 minutes at room temperature. […]

Cx43 in OA chondrocytes [2] = test: Western-blot of Cx43 levels; conditions: 16 hours, vs untreated (UT)
From the text: as §1
The cell pellet isolated from patients with OA and treated with the peptides or untreated were mechanically and chemically lysed using a needle of 29 gauges (BD Medical) in the presence of a cold lysis buffer (50 mM Tris HCl pH 7.5; 50 mM EDTA pH 8, 0.5% NP-40, 1% Triton X-100, 150 mM NaCl). Once the cell extracts were obtained, they were diluted in loading buffer (10% SDS, 200 mM Tris HCl pH 6.8, 50% glycerol, 0.1% Bromophenol Blue, 10% […]). Equal amounts of the cell extracts were separated on a 10% Acrylamide/Bisacrylamide (Acr/Bis) gel with SDS. The proteins were subsequently transferred to a polyvinylidene fluoride membrane (PVDF, Merck) in a Trans-Blot® SD Semi-Dry Transfer Cell (Bio-Rad). It was verified that the transfer was correct by staining the membrane with ATX Ponceau S (Sigma-Aldrich). To block possible nonspecific binding with the membrane, 1-hour incubation was performed at room temperature with a 5% milk solution in a TTBS buffer (20 mM Tris, 150 mM NaCl, 0.05% Tween-20). […]

[3] = tested on: gap junctions (GJs) formed by Cx43 in OA chondrocytes; test: Scrape Loading/Dye Transfer (SL/DT) assay; conditions: 150 μM, 16 hours, vs untreated (UT)
Protocol: FIG. 5. Peptides YSA1 and YTP1 decrease intercellular communication through gap junctions (GJs) formed by Cx43 in OA chondrocytes. (a) Scrape Loading/Dye Transfer (SL/DT) assay in which the transfer of Lucifer Yellow (LY) fluorophore between contact chondrocytes through GJs is studied.
Cells were seeded in culture plates to an approximate 90% confluence. After treating the cells with the peptides, the medium was removed and washed twice with PBS. The fluorescent compound Lucifer Yellow (LY, Cell Projects Ltd © Kent) 0.4% in PBS was added and two cuts were made, one with a scalpel and the other with a needle on the cell monolayer. The cells were incubated for 5-7 minutes at 37° C. to allow the transfer of the LY between undamaged cells in contact, after which the LY was removed, and cells were washed with PBS. The cells were fixed with 4% formaldehyde for 10 minutes. The visualization was performed in an inverted fluorescence microscope (Inverted Research Microscope Eclipse Ti, Nikon).
A Scrape Loading/Dye Transfer (SL/DT) test was performed in which the transfer of Lucifer Yellow fluorophore (LY) between contact chondrocytes through GJs was studied.

[4] = tested on: primary chondrocytes from articular cartilage of patients with OA; test: MTT cell viability assay to study toxicity; conditions: 1-10-60-600 μM, 16 hours, with respect to untreated cells
Protocol: FIG. 2. Cell viability assay to study toxicity. A MTT viability assay was carried out in primary chondrocytes from articular cartilage of patients with OA treated with increasing concentrations of the peptide 8Arg-YSA1 (1-10-60-600 μM, with the octaarginine sequence and the TMR), for 16 hours.
An initial number of cells (5,000-10,000) were seeded in a 96-well culture plate and treated with different concentrations of the peptides. After the treatment, the medium was removed from each well and 10 μL of the MTT reagent was added to 100 μL of fresh medium and incubated at 37° C. for 4 hours. To solubilize the formazan crystals of the MTT reagent, it was incubated with DMSO at room temperature and under stirring for 30 minutes. Absorbance was measured at 570 nm in a plate reader (Nanoquant Infinite M200, TECAN).
Such as it is explained in FIG. 2, a MTT viability assay was carried out on primary chondrocytes from articular cartilage of patients with OA treated with increasing concentrations of the peptide 8Arg-YSA1 (1-10-60-600 μM, with the arginine sequence and the TMR), for 16 hours.

[5] = 150 μM, α-tubulin loading control

Compound	positivity for Cx43 (immunofluorescence) (Cx43 in OA chondrocytes [1])	Cx43 levels (western blot) (Cx43 in OA chondrocytes [2]; [5])	cell coupling through GJs (Lucifer Yellow transfer) [3]	Cx43 levels (western blot) (Cx43 in OA chondrocytes [2]; 5 μM, Ponceau stain loading control)	cell viability (MTT) [4]
Nt-GKSDPYHATSGALSPAKD-Ct ({TMR}-GKSDPYHATSGALSPAKD) [YSA1, residues 242-259 of the C-terminal domain of Cx43; labelled at N-terminus with TMR fluorophore]	decrease in positivity	significantly reduced the levels of Cx43	decrease in cell coupling	–	–
Nt-FKGVKDRVKGK-Ct ({TMR}-FKGVKDRVKGK) [TUB1, TMR-labelled]	–	–	–	reduced the Cx43 levels	–
CC(C)C[C@H](NC(=O)[C@H](C)NC(=O)CNC(=O)[C@H](CO)NC(=O)[C@@H](NC(=O)[C@H](C)NC(=O)[C@H](Cc1c[nH]cn1)NC(=O)[C@H](Cc1ccc(O)cc1)NC(=O)[C@@H]1CCCN1C(=O)[C@H](CC(=O)O)NC(=O)[C@H](CO)NC(=O)[C@H](CCCCN)NC(=O)CNC(=O)[C@H](CCCNC(=N)N)NC(=O)[C@H](CCCNC(=N)N)NC(=O)[C@H](CCCNC(=N)N)NC(=O)[C@H](CCCNC(=N)N)NC(=O)[C@H](CCCNC(=N)N)NC(=O)[C@H](CCCNC(=N)N)NC(=O)[C@H](CCCNC(=N)N)NC(=O)[C@H](CCCNC(=N)N)NC(=O)c1ccc2c(c1)C1(OC2=O)c2ccc(N(C)C)cc2Oc2cc(N(C)C)ccc21)[C@@H](C)O)C(=O)N[C@@H](CO)C(=O)N1CCC[C@H]1C(=O)N[C@@H](C)C(=O)N[C@@H](CCCCN)C(=O)N[C@@H](CC(=O)O)C(=O)O [8Arg-YSA1] (X1-RRRRRRRRGKSDPYHATSGALSPAKD-OH)	–	–	–	–	did not affect cell viability
Nt-GKSDPYHATTGPLSPAKD-Ct ({TMR}-GKSDPYHATTGPLSPAKD) [YTP1, TMR-labelled]	decrease in positivity	reduced the levels of Cx43	decreased cell coupling	–	–
